Source: PMC4291348, “A Continuous Enzyme-Coupled Assay for Triphosphohydrolase Activity of HIV-1 Restriction Factor SAMHD1” (Antimicrobial Agents and Chemotherapy, 2014)

Tests used:
SAMHD1 = system: T1, SAMHD1; assay: IEX-HPLC assay of SAMHD1 triphosphohydrolase activity; format: biochemical, human; settings: 0.2 mM GTP activated, 1 mM dATP, three enzyme concentrations 2.5, 5, 7.5 µM
T1 construct: The catalytic domain of SAMHD1 (residues 115 to 626) was expressed and purified as previously described; made in house
Protocol: IEX-HPLC assay of SAMHD1 Triphosphohydrolase activity
In a typical assay 2-10 µM SAMHD1 was incubated with 0.2 mM GTP activator and 1mM dNTP as substrate in Reaction buffer, 20mM Tris-HCl, 150 mM NaCl, 5 mM MgCl2, 2 mM TCEP (pH 7.5). The reaction was allowed to proceed and samples withdrawn at timed intervals up to 5 minutes and terminated by 10 fold dilution into 18.0% acetonitrile, 25mM Tris-HCl, 1 mM EDTA pH 8.0. The nucleotide hydrolysis reactions were analysed by anion exchange HPLC using a DNA-PAC100 (4 x 50mm) column (Dionex). The column was equilibrated at 30°C at 1 mL/min in 25mM Tris-HCl, 0.5% acetonitrile pH 8.0 (Buffer A). […] Absorbance data from the column eluent was continuously monitored between 200-400nm (2 nm interval) using MD-2010 photodiode array detector (JASCO). Peak integration of the absorbance data recorded at 260 nm was used to quantify the amount of substrate and products during at each time point of the reaction. Initial rates of dNTP hydrolysis were determined from the linear part of plots of substrate against time.
Supplementary Figure S1 - HPLC traces of 0.2 mM GTP activated SAMHD1 hydrolysis of 1 mM dATP. […] Inset, kcat was determined by linear regression of Kapp over three enzyme concentrations, 2.5 µM, 5 µM and 7.5
µM. Error bars represent the SEM of three independent measurements recorded at each substrate concentration. […]

[1] = biological target: T2, SAMHD1 (residues 115 to 626) (Homo sapiens, UniProt Q9Y3Z3); assay: Continuous enzyme-coupled (Ppx1 / MDCC-PBP) real-time assay of SAMHD1 triphosphohydrolase activity; format: biochemical; settings: GTP activator 0.2 mM, 25°C
T2 construct: The catalytic domain of SAMHD1 (residues 115 to 626) was expressed and purified as previously described; made in house
Protocol: The steady-state kinetics of SAMHD1 were determined by a coupled-enzyme assay using Ppx1 and a fluorescent phosphate biosensor, MDCC-PBP. The reactions were set up in 20-μl volumes in 384-well low-protein-binding microplates (Corning, USA), and the time-dependent fluorescence signal was measured using a Tecan Saffire^2 multiwell plate reader (Männedorf, Switzerland). Solutions containing SAMHD1 (residues 115 to 626), Ppx1, MDCC-PBP, an activator, and an inhibitor (if present) were incubated for 5 min at 25°C before the reaction was initiated by the addition of the substrate. The final concentrations were 100 nM SAMHD1, 10 nM Ppx1, and 40 μM MDCC-PBP. Depending on the experiment, the concentration of the substrate, the activator, or the inhibitor varied while the substrate and/or the activator was held constant at 1 mM and 0.2 mM, respectively. The fluorescence intensity was recorded at 430 nm for excitation and 465 nm for emission wavelengths, with a 7-nm slit width, at 8- to 10-s time intervals over a period of 10 to 30 min. The standard curves were obtained by incubating 40 μM MDCC-PBP with different concentrations of phosphate (Pi) and measuring the fluorescence, as discussed above. The fluorescence response was linear and in the range of 0 to 20 μM Pi.
The steady-state rates were obtained from the time courses of Pi formation by linear regression of the data points in the linear phase of the reaction. Rates were divided by the SAMHD1 concentration and were plotted versus the activator, substrate, or inhibitor concentration. Apparent dissociation constants for the activator (KA) or the substrate binding (KS) and the catalytic constant (kcat) were determined by nonlinear least-squares fitting using either a hyperbolic or a Hill-function equation in the software package GraFit 7.0.3 (Erithacus Software, United Kingdom) ([22]). […] Data from the three different experiments were analyzed by a least-squares fit using the equation for competitive inhibition. The fits for the three data sets yielded invariant values for the inhibition constants (Ki), supporting a competitive mode of inhibition. All measurements were performed in triplicate in the reaction buffer.

T2 sequence (Q9Y3Z3 115-626): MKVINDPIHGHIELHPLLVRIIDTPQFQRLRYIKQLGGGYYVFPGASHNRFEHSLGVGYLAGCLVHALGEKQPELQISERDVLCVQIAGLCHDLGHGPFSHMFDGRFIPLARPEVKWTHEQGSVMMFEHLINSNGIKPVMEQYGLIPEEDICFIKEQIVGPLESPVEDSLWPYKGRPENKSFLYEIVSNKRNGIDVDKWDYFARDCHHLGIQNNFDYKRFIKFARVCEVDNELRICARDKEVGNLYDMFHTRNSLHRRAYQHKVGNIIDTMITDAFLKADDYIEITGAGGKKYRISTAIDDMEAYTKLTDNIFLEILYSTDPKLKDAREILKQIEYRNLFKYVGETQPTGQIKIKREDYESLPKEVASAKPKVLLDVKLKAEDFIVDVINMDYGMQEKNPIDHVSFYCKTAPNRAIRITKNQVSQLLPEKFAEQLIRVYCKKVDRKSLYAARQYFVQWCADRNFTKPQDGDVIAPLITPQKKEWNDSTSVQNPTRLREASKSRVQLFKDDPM

kcat (SAMHD1): 0.99 s⁻¹ | KS, apparent dissociation constant for substrate binding [1]: 42.1 ± 6.9 µM | kcat [1]: 0.94 ± 0.06 s⁻¹
Structure (SMILES): Nc1ncnc2c1ncn2[C@H]1C[C@H](O)[C@@H](COP(=O)(O)OP(=O)(O)OP(=O)(O)O)O1 [dATP]
